From patent US20160177395A1, “BIOMARKERS FOR THE PREDICTION OF RENAL INJURY” (priority 2007, published 2016)
“And” between values parts separate entries of the source, which are not always exact repeats. Identical values can stand only once.

Experiments:
[1] = tested on: kidney tissues of treated or untreated rats; experiment: Real-time qRT-PCR of marker transcripts in kidney tissue panel, discovery stage (Table 22); format: in vivo, rat; details: rat kidney, listed as Dox
Protocol: Before RT preparation the RNA was treated with DNA-free (Ambion, cat. No. AM1906) DNase treatment and removal—according to manufacturer protocol. DNase procedure was repeated until no DNA is detected in a PCR reaction using the RNA samples.
The mixture is then incubated for 5 min at 65° C. and then quickly chilled on ice. Thereafter, 20 μl of 5× SuperscriptII first strand buffer (Invitrogen, Cat. No. Y00146), 9.6 μl 0.1M DTT (Invitrogen, Cat. No. Y00147) and 160 units RNasin (Promega, Cat. No. N251A) are added, and the mixture is incubated for 10 min at 25° C., followed by further incubation at 42° C. for 2 min. […] The resulting cDNA is diluted 1:20 in TE buffer (10 mM Tris pH=8, 1 mM EDTA pH=8).
cDNA (5 μl), prepared as described above, is used as a template in Real-Time PCR reactions using the SYBR Green I assay (PE Applied Biosystem) with specific primers in 100 nM concentration if not indicated otherwise and UNG Enzyme (Eurogentech or equal) Amplification is effected as follows: 50° C. for 2 min, 95° C. for 10 min, and then 40 cycles of 95° C. for 15 sec, followed by 60° C. for 1 min (if not indicated otherwise). Amplification step is followed by dissociation step. Detection is performed by using the PE Applied Biosystem SDS 7000. The cycle in which the reactions achieved a threshold level (Ct) of fluorescence is registered and is used to calculate the relative transcript quantity in the RT reactions. Non-detected samples are assigned Ct value of 41 and are calculated accordingly. The relative quantity is calculated using the equation Q=efficiencŷ-Ct. The efficiency of the PCR reaction is calculated from a standard curve, created by using serial dilutions of several reverse transcription (RT) reactions. To minimize inherent differences in the RT reaction, the resulting relative quantities are normalized to normalization factor calculated as follows: […]
The relative quantity (Q) of each housekeeping gene in each sample is calculated as described above. In order to calculate the “relative Q relative to MED” each Q for each HSKP gene is divided by the median quantity of this gene in all panel samples. To finally achieve the normalization factor of each sample the geometric mean of all four “relative Q relative to MED” was calculated. The normalization factor was then used for further calculations.
The markers of the present invention were tested with regard to their expression in a panel of kidney tissues samples from treated and control rats. Unless otherwise noted, all experimental data relates to the novel polynucleotides and proteins of the present invention, named according to the segment being tested (as expression was tested through RT-PCR as described). Tests were then performed as described in the “Materials and Experimental Procedures” section above.
The qRT-PCR measurements were normalized according to each samples normalization factor as described in “RT Preparation and Real-Time qRT-PCR Analysis” and further multiplied by a constant factor for ease of viewing.

[2] = tested on: kidney tissues of treated or untreated rats; experiment: Real-time qRT-PCR of signature amplicons, validation stage, labeled and un-labeled samples (Table 23); details: for H31883_DB71_seg13 normalized qRT-PCR result / MUSCYCG1R_DB81_seg19-20 normalized qRT-PCR result / W41270_DB81_seg11 normalized qRT-PCR result: labeled sample, one line per animal
From the text: New primers were designed for part of the transcripts, and new conditions for several qRT-PCR reactions were used, as described below.
The measurements were normalized in two steps. First—according to the house-keeping-genes normalization factor, and second—each plate was normalized according to ratio of the intensity measurements from samples appearing in it and in the shuffled (normalization) plate (Table 25 provides the plates details and the section “Inter-Plate Normalization” provides details of the normalization process). The normalized values were further scaled by a factor, for ease of viewing.
RT was prepared and qRT-PCR performed and analyzed as described hereinabove. qRT-PCR was performed for the four genes comprising the signature of the discovery stage described in Table 13. Two amplicons were tested for each gene—one representing the wild-type transcript, and another representing an alternative splice variant. Each amplicon was measured using the labeled samples described in Table 9 herein, as well as the un-labeled samples. Samples from both groups (labeled and un-labeled) were tested in seven 96 well plates as described in Table 25. In order to correct possible run to run variations, the following controls were added: 1. several samples were repeated in all 96 wells plates; 2. control shuffled plate was designed which combined samples from all seven test plates.
To account for possible differences of qRT-PCR measurements between the different plates due to experimental artifacts, a normalization plate was planned. This plate, designated hereinabove ‘shuffled plate’, contained samples from all other plates. Real Time PCR was performed on this plate using the primers appropriate for all candidates in tables 26 and 27. For each other plate (plates 1-7 above) and each amplicon, the samples appearing also in the shuffled plate were examined—the ratio between the transcript abundance as measured in the plate to the abundance as measured in the shuffled plate was calculated, outliers were manually removed, and the geometric mean of the left ratios was taken as an additional multiplicative normalization factor for the plate and amplicon.

[3] = day28, individual animals (F and M)
[4] = day1, female rat kidney, listed as Dox
[5] = day1, male rat kidney, listed as Dox
[6] = day28, female rat kidney, listed as Dox
[7] = day28, male rat kidney, listed as Dox
[8] = labeled samples, day1, kidney of individual male/female rats, listed as Dox
[9] = labeled samples, day5, kidney of individual male/female rats, listed as Dox
[10] = labeled samples, day28, kidney of individual male/female rats, listed as Dox

## COc1cccc2c1C(=O)c1c(O)c3c(c(O)c1C2=O)C[C@@](O)(C(=O)CO)C[C@@H]3O[C@H]1C[C@H](N)[C@H](O)[C@H](C)O1 [Doxorubicin]
[1]; [3]
  RATRAB13X_DB71_seg11-13 normalized Real Time PCR: 0.74 and 0.95 and 1.05 and 0.91 and 0.77 and 0.84
  RNU24174_DB71_seg8 normalized Real Time PCR: 1.99 and 2.06 and 4.39 and 3.5 and 2.2 and 2.91
  W41270_DB81_seg11 normalized Real Time PCR: 0.84 and 0.44 and 0.77 and 1.64 and 0.54 and 0.5
  W64472_DB81_seg2 normalized Real Time PCR: 0.8 and 0.69 and 1.73 and 1.71 and 0.83 and 1.15
  W83813_DB81_seg27 normalized Real Time PCR: 0.58 and 0.61 and 0.63 and 0.51 (2×) and 0.55
[1]; day28, individual animals
  AA686189_DB71_seg6 normalized Real Time PCR expression: 1.5 and 0.62 and 0.04 and 6.37 and 0.92 and 1.28
  AI045075_DB71_seg6 normalized Real Time PCR expression: 0.66 and 0.82 and 1.6 and 1.49 and 0.9 and 0.87
  AI454051_DB71_seg0 normalized Real Time PCR expression: 0.85 and 0.92 and 0.87 and 0.96 and 1.11 and 0.72
  H31045_DB71_seg5 normalized Real Time PCR expression: 2.16 and 2.58 and 0.51 and 1.57 and 2.33 and 2.12
[2]; [4]
  H31883_DB71_seg13 normalized qRT-PCR result: 2.054 and 1.752 and 1.003
  MUSCYCG1R_DB81_seg19-20 normalized qRT-PCR result: 1.631 and 1.268 and 0.741
  W41270_DB81_seg11 normalized qRT-PCR result: 1.548 and 1.367 and 0.977
[2]; [5]
  H31883_DB71_seg13 normalized qRT-PCR result: 0.956 and 0.936 and 0.964
  MUSCYCG1R_DB81_seg19-20 normalized qRT-PCR result: 1.257 and 1.622 and 1.454
  W41270_DB81_seg11 normalized qRT-PCR result: 1.26 and 2.478 and 1.45
[2]; [6]
  H31883_DB71_seg13 normalized qRT-PCR result: 0.734 and 0.719 and 0.955
  MUSCYCG1R_DB81_seg19-20 normalized qRT-PCR result: 0.964 and 0.653 and 0.54
  W41270_DB81_seg11 normalized qRT-PCR result: 2.157 and 1.462 and 1.023
[2]; [7]
  H31883_DB71_seg13 normalized qRT-PCR result: 0.686 and 0.442 and 0.586
  MUSCYCG1R_DB81_seg19-20 normalized qRT-PCR result: 0.669 and 1.434 and 0.785
  W41270_DB81_seg11 normalized qRT-PCR result: 1.613 and 3.226 and 1.604
[2]; [8]
  H31883_DB71_seg13 normalized qRT-PCR expression (Cyclin-G1 (CCNG1) transcript): 0.993 and 1.283 and 1.41 and 1.46 and 1.116
  MUSCYCG1R_DB81_seg19-20 normalized qRT-PCR expression: 1.387 and 1.761 and 2.256 and 1.516 and 1.627 and 1.551
  W41270_DB81_seg11 normalized qRT-PCR expression (tumor necrosis factor receptor superfamily, member 12a transcript): 0.824 and 1.286 and 1.43 and 1.148 and 1.501 and 0.935
[2]; [9]
  AI045075_DB71_seg6 normalized qRT-PCR expression (Interferon stimulated exonuclease 20 (ISG20) transcript): 1.248 and 1.348 and 1.319 and 1.844
  H31883_DB71_seg13 normalized qRT-PCR expression (Cyclin-G1 (CCNG1) transcript): 2.129 and 0.905 and 2.586 and 1.227 and 1.377
  MUSCYCG1R_DB81_seg19-20 normalized qRT-PCR expression: 1.321 and 1.723 and 1.536 and 2.913 and 1.438
  W41270_DB81_seg11 normalized qRT-PCR expression (tumor necrosis factor receptor superfamily, member 12a transcript): 1.017 and 1.053 and 1.551 and 1.791 and 0.851
  W64472_DB81_seg2 normalized qRT-PCR expression (Interferon stimulated exonuclease 20 (ISG20) transcript): 2.03 and 2.924 and 1.441 and 3.4 and 2.561
[2]; [10]
  H31883_DB71_seg13 normalized qRT-PCR expression (Cyclin-G1 (CCNG1) transcript): 1.328 and 1.54 and 1.434 and 1.642 and 1.611 and 1.408
  MUSCYCG1R_DB81_seg19-20 normalized qRT-PCR expression: 0.985 and 2.342 and 1.437 and 1.991 and 2.105 and 1.779
  W41270_DB81_seg11 normalized qRT-PCR expression (tumor necrosis factor receptor superfamily, member 12a transcript): 1.263 and 0.73 and 2.381 and 1.44 and 0.652 and 0.787
[2]; rat, in vivo
  Label: true label (Normal/Toxic), known renal toxic effect: Toxic
